{"source": "patent US8063079B2", "about": "“Cyclopropyl compounds” (Eli Lilly and Company, priority 2008, dated 2011)", "key": {"[1]": {"system": "plasma glucose in male Wistar rats", "experiment": "Oral Glucose Tolerance Test (OGTT)", "assay_type": "in vivo, rat", "procedure": "Male Wistar rats at a weight of 225-250 g, are kept on regular diet and with normal light cycle and conditions. For the study, rats are fasted overnight before their exact weights are measured, and are randomized into groups of similar weights (n=4 per group). The compound is suspended in a 1:1 mixture of solutol/ethanol in a bath sonicator (10% of total volume). The obtained suspension is then diluted with 9 volumes of 10% aqueous solutol solution, and the compound is dosed orally at 1, 3, 6, 10, 20, and 30 mg/kg orally. Rats are given a 2 g/kg oral glucose bolus 2 hours after compound administration. Blood is collected via tail bleed at 0, 15, 30, 60, 90 and 120 minutes post glucose administration. Collected blood is placed into ethylenediaminetetraacetic acid (EDTA) tubes at volume of 400 μL per sample, and the samples are kept on ice. Plasma is isolated and stored at −20° C. until samples are analyzed for glucose and compound exposure. Area under the plasma glucose curve (glucose AUC) is calculated for each group and the percentage decrease in the glucose AUC versus the control group is used as a measure of efficacy of the compound to decrease plasma glucose."}, "[2]": {"system": "Rat insulinoma INS-1E cells", "experiment": "Glycolysis Assay", "assay_type": "cell-based", "conditions": "INS1-E cells, 8 mM glucose, n=4, read-out: mean EC50 of stimulation of glucose metabolism", "protocol": "Rat insulinoma INS-1E cells are maintained at 37° C., 5% CO2, 95% humidity in 1640 medium supplemented with 11 mM glucose, 5% Fetal Bovine Serum, 50 μM 2-Mercaptoethanol, 1 mM pyruvate, 10 mM HEPES and antibiotics. Prior to assay, cells are trypsinized, pelleted by centrifugation and seeded into 96-well tissue culture assay plates at the density of 30,000 cells/well. Cells are allowed to attach and incubated for 48 hours at 37° C., 5% CO2. On the assay day, cells are washed with and incubated in 200 μL Earle's Balanced Salt Solution (EBSS) buffer supplemented with 0.1% Bovine Serum Albumin (BSA). After 30 minutes incubation, the buffer is removed and 100 μL EBSS buffer containing 0.1% BSA, 8 mM glucose and the compound is added to cells. Immediately after, 20 μL of CellTiter 96® AQueous One Solution Reagent is added to cells and cells are incubated at 37° C. for an additional hour. At the end of incubation absorbance at 490 nm is read. Absorbance values are used for EC50 calculations."}, "[3]": {"experiment": "Blood Brain Barrier Permeability", "assay_type": "in vivo, mouse", "conditions": "male CF-1 mice, IV bolus 2.17 μmole/kg, five minutes post dose", "procedure": "A stock compound solution is prepared in dimethylsulfoxide at 10 mM. A dose solution is then prepared at 1 mM by diluting 100 μL of the stock with 900 μL of propylene glycol. The dose is administered as an IV bolus (2.2 mL/kg) via the tail vein into six male CF-1 mice (approximately 23 g) for a target dose of 2.17 μmole/kg. Mice are euthanized using both CO2 and cervical dislocation. Three mice are sacrificed 5 minutes post dose and three 60 minutes post dose. Blood is collected from each animal via cardiac puncture, and plasma is prepared using sodium EDTA, transferred into polypropylene sample tubes and immediately frozen using dry ice. […]\nMS/MS is effected using a Sciex API 4000 triple quadrupole mass spectrometer equipped with a turbo ion spray source. […] Column effluent is diverted to waste from 0-2.8 minutes and then directed into the mass spectrometer from 2.8-4.0 minutes MS/MS transitions monitored are 560/84. Quantitation of compound in test samples is achieved by comparing peak area values to a quadratic equation weighted 1/x^2 derived from the nominal concentrations of the calibration standards and their respective peak areas. Upper and Lower Limits of Quantitation are determined by the back calculated recoveries of calibration standards that exceeded +/−20% of theory. […]"}, "human islet GK isoform": {"molecular_target": "T1, human islet GK isoform (Homo sapiens, UniProt P35557)", "T1 construct": "(His)6; made in house; host or cells: E. coli", "T1 sequence (P35557 1-465)": "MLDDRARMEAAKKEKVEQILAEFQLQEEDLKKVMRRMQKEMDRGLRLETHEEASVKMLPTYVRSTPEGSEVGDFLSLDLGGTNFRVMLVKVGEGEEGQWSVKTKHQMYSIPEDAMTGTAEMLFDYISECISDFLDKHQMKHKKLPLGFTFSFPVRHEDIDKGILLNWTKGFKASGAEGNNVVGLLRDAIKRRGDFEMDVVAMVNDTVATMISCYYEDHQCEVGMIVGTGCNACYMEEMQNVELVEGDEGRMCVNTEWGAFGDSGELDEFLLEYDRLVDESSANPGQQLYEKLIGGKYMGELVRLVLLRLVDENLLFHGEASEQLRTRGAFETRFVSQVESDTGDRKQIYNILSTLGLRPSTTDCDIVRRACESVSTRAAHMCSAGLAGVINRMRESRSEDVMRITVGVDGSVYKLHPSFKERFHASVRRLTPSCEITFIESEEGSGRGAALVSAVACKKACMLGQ", "experiment": "Glucokinase Assay", "assay_type": "biochemical", "procedure": "The human islet GK isoform is expressed in E. coli as (His)6-tagged fusion protein and purified with metal chelate affinity chromatography, see e.g. Tiedge et al., Biochem. Biophys. Acta 1337, 175-190, 1997. After purification the enzyme is stored in aliquots at concentration 0.8 mg/ml in 25 mM sodium phosphate, 150 mM sodium chloride, 100 mM imidazole, 1 mM dithiothreitol, 50% glycerol at −80° C. The assay is performed in flat bottom 96-well plates in a final incubation volume of 100 μL. The incubation mixture consists of 25 mM 4-(2-hydroxyethyl)-1-piperazineethanesulfonic acid (HEPES) (pH7.4), 50 mM potassiumchloride, 2.5 mM magnesiumchloride, 2 mM dithiothreitol, 4 U/ml glucose-6-phosphate dehydrogenase from Leuconostoc mesenteroides, 5 mM ATP, 1 mM NAD and a set concentration of glucose. Test compounds are dissolved in dimethylsulfoxide and then added to the reaction mixture giving the final dimethylsulfoxide concentration of 10%. The reaction is initiated by addition of 20 μL GK and run for 20 min at 37° C. The amount of formed NADH is measured as an increase in absorbance at 340 nm using a microplate reader. Absorbance values are used for EC50 calculations."}}, "note": "Values joined by “and” are separate entries in the source; they are usually repeats but may differ in a detail not shown here. Equal entries are not always repeated."}
{"smiles": "O=C(Nc1ncc(SCCN2CCCC2)s1)[C@]1(c2ccc(S(=O)(=O)C3CC3)cc2)C[C@H]1C1CCCCC1", "note": "[Example 1, (1R,2S)-2-Cyclohexyl-1-(4-cyclopropanesulfonyl-phenyl)-cyclopropanecarboxylic acid [5-(2-pyrrolidin-1-yl-ethylsulfanyl)-thiazol-2-yl]-amide]", "values": [{"measurement": "maximal lowering of glucose AUC versus the untreated control group", "setting": "[1]; 30 mg/kg oral, 2 g/kg oral glucose bolus 2 hours after compound", "result": 42, "unit": "%"}, {"measurement": "average compound concentration in plasma at which a 20% glucose AUC decrease occurs", "setting": "[1]; interpolation of the data", "result": "99 ng/ml and 179 nM"}, {"measurement": "compound dose corresponding to a 20% glucose AUC decrease", "setting": "[1]; interpolation of the data, oral", "result": 6.9, "unit": "mg/kg"}, {"measurement": "effect on plasma glucose", "setting": "[1]; oral 1-30 mg/kg, fasted and postprandial glucose levels", "result": "decreases plasma glucose in a dose-dependent manner"}, {"measurement": "EC50", "setting": "[2]", "result": "579 ± 139", "unit": "nM"}, {"measurement": "mean total brain level", "setting": "[3]", "result": 0.539, "unit": "nmol/g"}, {"measurement": "Kp at 5 min", "setting": "[3]; mouse, brain/plasma, read-out: mean brain/plasma ratio", "result": 0.17}, {"measurement": "EC50", "setting": "human islet GK isoform; 10 mM glucose, n=5, read-out: EC50 of GK activation", "result": "42 ± 42", "unit": "nM"}, {"measurement": "enzyme activity at lower glucose concentrations", "setting": "human islet GK isoform; lower glucose concentrations", "result": "increased the enzyme activity in a concentration dependent manner"}]}
